Patent US9556179B2 (BRISTOL-MYERS SQUIBB COMPANY, priority 2012, dated 2017)

Columns and labels:
[1] = biological target: CK1δ (Homo sapiens (Human), UniProt P48730); test: CK1δ kinase assay (Caliper LABCHIP electrophoretic separation of fluoresceinated peptide substrate and product); type: biochemical; conditions: 200 pM enzyme, 50 μM ATP, 22 hours at room temperature
Method in brief: (§1)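 Compounds, taken from 10 mM DMSO stocks, are titrated at eleven concentrations. Kinase reactions proceed for 22 hours at room temperature and are quenched with EDTA. Substrate and product are resolved electrophoretically, and IC50 values are fitted by non-linear regression.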

[2] = biological target: CK1ε (Homo sapiens (Human), UniProt P49674); test: CK1ε kinase assay (Caliper LABCHIP electrophoretic separation of fluoresceinated peptide substrate and product); type: biochemical; conditions: 200 pM enzyme, 50 μM ATP, 22 hours at room temperature
Sequence of CK1ε (P49674 whole entry): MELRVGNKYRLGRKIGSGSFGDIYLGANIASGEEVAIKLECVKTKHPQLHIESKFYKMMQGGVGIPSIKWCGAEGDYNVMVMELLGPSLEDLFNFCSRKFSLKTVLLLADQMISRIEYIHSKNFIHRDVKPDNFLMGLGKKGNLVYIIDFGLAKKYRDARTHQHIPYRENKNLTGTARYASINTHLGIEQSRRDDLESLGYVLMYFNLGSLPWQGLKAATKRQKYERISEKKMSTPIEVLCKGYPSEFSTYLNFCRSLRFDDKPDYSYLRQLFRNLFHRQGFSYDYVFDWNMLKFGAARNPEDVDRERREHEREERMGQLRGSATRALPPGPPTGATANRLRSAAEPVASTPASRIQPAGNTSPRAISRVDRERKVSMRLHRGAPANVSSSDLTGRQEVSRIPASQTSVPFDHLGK
Method in brief: as §1

Sequence of CK1δ (P48730 whole entry): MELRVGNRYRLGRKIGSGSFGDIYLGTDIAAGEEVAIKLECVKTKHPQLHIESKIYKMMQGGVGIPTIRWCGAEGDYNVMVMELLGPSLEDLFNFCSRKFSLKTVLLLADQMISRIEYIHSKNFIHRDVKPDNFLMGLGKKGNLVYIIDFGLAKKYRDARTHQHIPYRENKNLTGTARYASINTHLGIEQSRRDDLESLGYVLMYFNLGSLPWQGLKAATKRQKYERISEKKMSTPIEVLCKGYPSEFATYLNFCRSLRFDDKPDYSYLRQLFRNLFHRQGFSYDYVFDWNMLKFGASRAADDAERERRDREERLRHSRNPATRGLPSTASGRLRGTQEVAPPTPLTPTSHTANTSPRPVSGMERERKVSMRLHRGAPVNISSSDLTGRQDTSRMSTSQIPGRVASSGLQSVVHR

Row | IC50 [1] [nM] | IC50 [2] [nM] | Compound
1 | 1.65 | 16.6 | O=C(Nc1cn2nc(-c3c(-c4ccc(F)cc4)ncn3CCN3CCCC3=O)ccc2n1)c1ccnc(F)c1 [Compound 272, 2-fluoro-N-(6-(4-(4-fluorophenyl)-1-(2-(2-oxo-1-pyrrolidinyl)ethyl)-1H-imidazol-5-yl)imidazo[1,2-b]pyridazin-2-yl)isonicotinamide]
2 | 0.257 | 1.01 | CCCn1cnc(-c2ccc(F)cc2)c1-c1ccc2nc(NC(=O)C(C)(C)C)cn2n1 [Compound 273, N-(6-(4-(4-Fluorophenyl)-1-propyl-1H-imidazol-5-yl)imidazo[1,2-b]pyridazin-2-yl)pivalamide]
3 | 0.635 | 8.98 | CC(C)(C)C(=O)Nc1cn2nc(-c3c(-c4ccc(F)cc4)ncn3CCO)ccc2n1 [Compound 274, N-(6-(4-(4-fluorophenyl)-1-(2-hydroxyethyl)-1H-imidazol-5-yl)imidazo[1,2-b]pyridazin-2-yl)pivalamide]
4 | 0.545 | 4.23 | CC(C)(C)C(=O)Nc1cn2nc(-c3c(-c4ccc(F)cc4)ncn3Cc3ccccc3)ccc2n1 [Compound 275, N-(6-(1-benzyl-4-(4-fluorophenyl)-1H-imidazol-5-yl)imidazo[1,2-b]pyridazin-2-yl)pivalamide]
5 | 3.88 | 35.9 | CC(C)(C)C(=O)Nc1cn2nc(-c3[nH]cnc3-c3ccc(F)cc3)ccc2n1 [Compound 276, N-(6-(4-(4-fluorophenyl)-1H-imidazol-5-yl)imidazo[1,2-b]pyridazin-2-yl)pivalamide]
6 | 0.238 | 3.82 | CC(C)(C)C(=O)Nc1cn2nc(-c3c(-c4ccc(F)cc4)ncn3CC3CNC(=O)C3)ccc2n1 (stereo not drawn) [Compound 277, N-(6-(4-(4-fluorophenyl)-1-((5-oxo-pyrrolidin-3-yl)methyl)-1H-imidazol-5-yl)imidazo[1,2-b]pyridazin-2-yl)pivalamide]
7 | 0.444 | 5.43 | Cc1cc(Cn2cnc(-c3ccc(F)cc3)c2-c2ccc3nc(NC(=O)C(C)(C)C)cn3n2)no1 [Compound 278, N-(6-(4-(4-fluorophenyl)-1-((5-methyl-isoxazol-3-yl)ylmethyl)-1H-imidazol-5-yl)imidazo[1,2-b]pyridazin-2-yl)pivalamide]
8 | 0.169 | 0.887 | CC(C)(C)C(=O)Nc1cn2nc(-c3c(-c4ccc(F)cc4)ncn3Cc3ccoc3)ccc2n1 [Compound 279, N-(6-(4-(4-fluorophenyl)-1-(furan-3-ylmethyl)-1H-imidazol-5-yl)imidazo[1,2-b]pyridazin-2-yl)pivalamide]
9 | 0.52 | 2.49 | COCCn1cnc(-c2ccc(F)cc2)c1-c1ccc2nc(NC(=O)C(C)(C)C)cn2n1 [Compound 280, N-(6-(4-(4-fluorophenyl)-1-(2-methoxy-ethyl)-1H-imidazol-5-yl)imidazo[1,2-b]pyridazin-2-yl)pivalamide]
10 | 1.81 | 7.79 | CC(C)(C)C(=O)Nc1cn2nc(-c3c(-c4ccc(F)cc4)ncn3Cc3cccnc3)ccc2n1 [Compound 281, N-(6-(4-(4-fluorophenyl)-1-(pyridin-3-ylmethyl)-1H-imidazol-5-yl)imidazo[1,2-b]pyridazin-2-yl)pivalamide]
11 | 0.766 | 13.2 | CC(C)(C)C(=O)Nc1cn2nc(-c3c(-c4ccc(F)cc4)ncn3CCc3cccnc3)ccc2n1 [Compound 282, N-(6-(4-(4-fluorophenyl)-1-(2-(pyridin-3-yl)ethyl)-1H-imidazol-5-yl)imidazo[1,2-b]pyridazin-2-yl)pivalamide]
12 | 0.545 | 7.62 | Cn1cnc(-c2ccc(F)cc2)c1-c1ccc2nc(NC(=O)C(C)(C)C)cn2n1 [Compound 283, N-(6-(4-(4-fluorophenyl)-1-methyl-1H-imidazol-5-yl)imidazo[1,2-b]pyridazin-2-yl)pivalamide]
13 | 0.384 | 2.02 | Cc1nc(-c2ccc(F)cc2)c(-c2ccc3nc(NC(=O)c4ccnc(F)c4)cn3n2)n1CC(F)F [Compound 284, N-(6-(1-(2,2-Difluoroethyl)-4-(4-fluorophenyl)-2-methyl-1H-imidazol-5-yl)imidazo[1,2b]-pyridazin-2-yl)-2-fluoroisonicotinamide]
14 | 0.727 | 6.78 | CCc1nc(-c2ccc(F)cc2)c(-c2ccc3nc(NC(=O)c4ccnc(F)c4)cn3n2)n1CC(F)F [Compound 286, N-(6-(1-(2,2-difluoroethyl)-2-ethyl-4-(4-fluorophenyl)-1H-imidazol-5-yl)imidazo[1,2-b]pyridazin-2-yl)-2-fluoroisonicotinamide]
15 | 0.11 | 0.222 | Cc1nc(-c2ccc(F)cc2)c(-c2ccc3nc(NC(=O)c4ccnc(F)c4)cn3n2)n1CCF [Compound 288, 2-Fluoro-N-(6-(1-(2-fluoroethyl)-4-(4-fluorophenyl)-2-methyl-1H-imidazol-5-yl)imidazo[1,2-b]pyridazin-2-yl)isonicotinamide]
16 | 0.613 | 1.27 | Cc1nc(-c2ccc(F)cc2)c(-c2ccc3nc(NC(=O)c4ccnc(F)c4)cn3n2)n1CC(F)(F)F [Compound 289, 2-fluoro-N-(6-(4-(4-fluorophenyl)-2-methyl-1-(2,2,2-trifluoroethyl)-1H-imidazol-5-yl)imidazo[1,2-b]pyridazin-2-yl)isonicotinamide]
17 | 0.412 | 1.89 | Cc1nc(-c2ccc(F)c(F)c2)c(-c2ccc3nc(NC(=O)c4ccnc(F)c4)cn3n2)n1CCF [Compound 290, N-(6-(4-(3,4-difluorophenyl)-1-(2-fluoroethyl)-2-methyl-1H-imidazol-5-yl)imidazo[1,2-b]pyridazin-2-yl)-2-fluoroisonicotinamide]
18 | 0.388 | 2.64 | Cc1nc(-c2ccc(F)c(F)c2)c(-c2ccc3nc(NC(=O)c4ccnc(F)c4)cn3n2)n1CC(F)F [Compound 291, N-(6-(1-(2,2-difluoroethyl)-4-(3,4-difluorophenyl)-2-methyl-1H-imidazol-5-yl)imidazo[1,2-b]pyridazin-2-yl)-2-fluoroiso-nicotinamide]
19 | 0.208 | 1.81 | CCn1c(C)nc(-c2ccc(Cl)cc2)c1-c1ccc2nc(NC(=O)c3ccnc(F)c3)cn2n1 [Compound 292, N-(6-(4-(4-chlorophenyl)-1-ethyl-2-methyl-1H-imidazol-5-yl)imidazo[1,2-b]pyridazin-2-yl)-2-fluoroisonicotinamide]
20 | 0.109 | 1.28 | Cc1nc(-c2ccc(Cl)cc2)c(-c2ccc3nc(NC(=O)c4ccnc(F)c4)cn3n2)n1CCF [Compound 293, N-(6-(4-(4-chlorophenyl)-1-(2-fluoroethyl)-2-methyl-1H-imidazol-5-yl)imidazo[1,2-b]pyridazin-2-yl)-2-fluoroisonicotinamide]
21 | 0.208 | 4.03 | Cc1nc(-c2ccc(Cl)cc2)c(-c2ccc3nc(NC(=O)c4ccnc(F)c4)cn3n2)n1CC(F)F [Compound 294, N-(6-(4-(4-chlorophenyl)-1-(2,2-difluoroethyl)-2-methyl-1H-imidazol-5-yl)imidazo[1,2-b]pyridazin-2-yl)-2-fluoroiso-nicotinamide]
22 | 0.126 | 5.95 | Cc1nc(-c2ccc(Cl)cc2)c(-c2ccc3nc(NC(=O)c4ccnc(F)c4)cn3n2)n1CC(F)(F)F [Compound 295, N-(6-(4-(4-chlorophenyl)-2-methyl-1-(2,2,2-trifluoroethyl)-1H-imidazol-5-yl)imidazo[1,2-b]pyridazin-2-yl)-2-fluoroisonicotin-amide]
23 | 0.519 | 10.2 | Cc1nc(-c2ccc(Cl)cc2)c(-c2ccc3nc(NC(=O)c4ccnc(F)c4)cn3n2)n1C [Compound 296, N-(6-(4-(4-chlorophenyl)-1,2-dimethyl-1H-imidazol-5-yl)imidazo[1,2-b]pyridazin-2-yl)-2-fluoroisonicotinamide]
24 | 0.354 | 2.26 | Cc1cc(-c2nc(C)n(CC(F)F)c2-c2ccc3nc(NC(=O)c4ccnc(F)c4)cn3n2)ccc1F [Compound 297]
25 | 0.714 | 5.29 | Cc1cc(-c2nc(C)n(C)c2-c2ccc3nc(NC(=O)c4ccnc(F)c4)cn3n2)ccc1F [Compound 298, 2-fluoro-N-(6-(4-(4-fluoro-3-methylphenyl)-1,2-dimethyl-1H-imidazol-5-yl)imidazo[1,2-b]pyridazin-2-yl)isonicotinamide]
26 | 0.186 | 0.76 | Cc1cc(-c2nc(C)n(CCF)c2-c2ccc3nc(NC(=O)c4ccnc(F)c4)cn3n2)ccc1F [Compound 299, 2-fluoro-N-(6-(4-(4-fluoro-3-methylphenyl)-1-(2-fluoroethyl)-2-methyl-1H-imidazol-5-yl)imidazo[1,2-b]pyridazin-2-yl) isonicotinamide]
27 | 3.9 | 4.4 | Cc1nc(-c2ccc(F)cc2)c(-c2ccc3nc(NC(=O)c4cncs4)cn3n2)n1C [Compound 303, N-(6-(4-(4-fluorophenyl)-1,2-dimethyl-1H-imidazol-5-yl)imidazo[1,2-b]pyridazin-2-yl)thiazole-5-carboxamide]

Row | Compound | IC50 [1] [nM] | IC50 [2] [nM]
28 | O=C(Nc1cn2nc(-c3c(-c4ccc(F)cc4)nc(C4CC4)n3CC(F)F)ccc2n1)c1ccnc(F)c1 [Compound 285] | 0.245 | 1.22
29 | CC(C)c1nc(-c2ccc(F)cc2)c(-c2ccc3nc(NC(=O)c4ccnc(F)c4)cn3n2)n1CC(F)F [Compound 287, N-(6-(1-(2,2-difluoroethyl)-4-(4-fluorophenyl)-2-isopropyl-1H-imidazol-5-yl)imidazo[1,2-b]pyridazin-2-yl)-2-fluoroiso-nicotinamide] | 0.776 | 9.17
30 | Cc1ccc(-c2nc(C)n(C)c2-c2ccc3nc(NC(=O)c4ccnc(F)c4)cn3n2)cc1 [Compound 300, N-(6-(1,2-dimethyl-4-(p-tolyl)-1H-imidazol-5-yl)imidazo[1,2-b]pyridazin-2-yl)-2-fluoroiso-nicotinamide] | 1.8 | 34.3
